Test results as given in patent publication US4282232A, “Nitroimidazole radiosensitizers for hypoxic tumor cells and compositions thereof” (priority 1979, dated 1981).
Like-named read-outs stand apart in the source and are kept apart here.

Tests used:
[1] = In vitro cytotoxicity (2 hour exposure); type: cell-based; details: chinese hamster, v-79-753 b cells; for MNTC at 2 h: read-out: In-vitro Cytotoxicity in cells: Nontoxic up to (concentration); for cytotoxicity at 2 h, 1000 µM: at 1mM
Procedure: (§1) Asynchronous monolayer cultures of Chinese hamster cells line V-79-753 B were employed in all the experiments. The monolayers were derived from exponentially-growing cultures. Methods of culturing and handling have been reported earlier by Cooke et al, Rad. Res. 65, 152 (1976). The plated cultures were rendered hypoxic in sealed dural containers capable of holding four petri dishes, by purging with nitrogen (oxygen-free grade) for one hour. Irradiation was carried out by using a Cobalt-60 source at a dose rate of approximately 310 rad/min according to the procedure described previously be Cooke et al, supra. A dose of 1395 rad was given to hypoxic cells in glass petri dishes in the presence of a given drug concentration (2000 cells/dish). Cell survival was estimated from unirradiated hypoxic cells exposed to the same drug concentration. Cultures were incubated for 6 days at 37° C. in an atmosphere of 5% CO2; the resulting colonies were fixed in absolute ethanol, stained with methylene blue and counted.
To determine toxicity in vitro, glass petri dishes containing approximately 200 cells/dish were exposed to a range of concentrations of each drug for 2 hours at room temperature (20° C.) in air or in hypoxia. Drug concentrations […] were employed.

in vivo = details: mouse, in vivo, ip
Procedure: (§2) Neurotoxicity in mice was determined using mice of strain BDF1. This was carried out by (1) determining the LD50 of each compound in mice and (2) observing the animals for acute neurotoxic symptoms such as convulsions. The drugs were either solubilized or suspended in normal saline and administered intraperitoneally to groups of 10 mice.

mice of strain BDF1 [2] = assay: in vivo; details: intraperitoneal, 24 hours observation
Procedure: as §2

hypoxic tumor cells = details: cited from earlier work; for selectivity (tumor cells versus normal tissue cells): DNA incorporating drugs; for radiosensitizing activity (in words): in vitro and/or in vivo
[3] = tested on: Chinese hamster cells line V-79-753 B; assay: Radiosensitization of hypoxic Chinese hamster cells (Cobalt-60 irradiation, enhancement ratio); type: cell-based; details: 1395 rad Cobalt-60
Procedure: as §1

[4] = tested on: hypoxic cells (Chinese hamster cells line V-79-753 B); assay: Differential cytotoxicity of hypoxic cells; type: cell-based
Procedure: as §1
[…] Drug concentrations between 10 μM were employed.

Redox potential = type: physicochemical
[5] = Toxicity, general statements of the description
mice = details: cited from earlier work
humans = details: cited from earlier work
mice of strain BDF1 [6] = details: footnote *: P. W. Sheldon, et al, Br. J. Cancer, 35, 795, 800 (1977); 1440 min; cited from earlier work
[7] = read-out: In-vitro Cytotoxicity in cells: inhibition

O=[N+]([O-])c1nc2ccccc2n1CC[N+]1([O-])CCCCC1 [A, 1-(1'-oxido)piperidinoethyl-2-nitrobenzimidazole]
MNTC at 2 h [1]: ≥ 10 mM | LD50 at 24 h (in vivo): ~5000 mg/kg | Convulsions in mice at LD50 doses (mice of strain BDF1 [2]): None

O=[N+]([O-])c1nc2ccccc2n1CCN1CCCCC1 [B, 1-piperidinoethyl-2-nitrobenzimidazole]
cytotoxicity at 2 h, 1000 µM [1, 7]: 50% | Convulsions in mice at LD50 doses (mice of strain BDF1 [2]): Yes | LD50 in mice (mice of strain BDF1 [2]): < 1 g

O=c1[nH]c(=O)n([C@H]2C[C@H](O)[C@@H](CO)O2)cc1Br [BUdR, 5-Bromodeoxyuridine]
selectivity (tumor cells versus normal tissue cells) (hypoxic tumor cells): failed precisely because of their poor selectivity problem

O=[N+]([O-])c1nccn1CC[N+]1([O-])CCCCC1 [C, 1-(1'-oxido)piperidinoethyl-2-nitroimidazole]
Radiosensitization (enhancement ratio at 1mM in chinese hamster cells) [3]: 2.2 | MNTC at 2 h [1]: ≥ 20 mM | Differential cytotoxicity of hypoxic cells ([4]; up to 4 hours): None | LD50 at 24 h (in vivo): > 5000 mg/kg | Convulsions in mice at LD50 doses (mice of strain BDF1 [2]): None | Redox Potential (Redox potential): -0.32 V

O=[N+]([O-])c1nccn1CCN1CCCCC1 [D, 1-piperidinoethyl-2-nitroimidazole]
Radiosensitization (enhancement ratio at 1mM in chinese hamster cells) [3]: ~2.1 | cytotoxicity at 2 h, 1000 µM [1, 7]: 70% | LD50 at 24 h (in vivo): 800 mg/kg | Convulsions in mice at LD50 doses (mice of strain BDF1 [2]): yes

C[N+]1(CCn2ccnc2[N+](=O)[O-])CCCCC1 [E, 1-(1'-methiodide)-piperidinoethyl-2-nitroimidazole]
cytotoxicity at 2 h, 2000 µM ([1]; at 2mM, read-out: In-vitro Cytotoxicity in cells: inhibition): 30% | LD50 at 24 h (in vivo): 250 mg/kg | Convulsions in mice at LD50 doses (mice of strain BDF1 [2]): yes | toxicity (in words) [5]: more toxic than the parent non-quaternized piperidino compound itself

COCC(O)Cn1ccnc1[N+](=O)[O-] (stereo not drawn) [F, Misonidazole]
Differential cytotoxicity of hypoxic cells ([4]; exposure time not given): yes | Redox Potential (Redox potential): -0.389 V | radiosensitizing activity (in words) (hypoxic tumor cells): effective in vivo | serious side effects when administered orally (mice; oral, mice): peripheral neuropathy and convulsions in mice | central nervous system (CNS) toxicity (humans; use in humans): limiting factor for their use in humans

O=c1[nH]c(=O)n([C@H]2C[C@H](O)[C@@H](CO)O2)cc1F [FUdR, 5-Fluorodeoxyuridine]
selectivity (tumor cells versus normal tissue cells) (hypoxic tumor cells): failed precisely because of their poor selectivity problem

Cc1ncc([N+](=O)[O-])n1CCO [G, Metronidazole]
Radiosensitization (enhancement ratio at 1mM in chinese hamster cells) [3]: 1.5 | Differential cytotoxicity of hypoxic cells ([4]; exposure time not given): yes | Redox Potential (Redox potential): -0.486 V | LD50 in mice (mice of strain BDF1 [6]): 3500 mg/kg | radiosensitizing activity (in words) (hypoxic tumor cells; as worded, listed as Metronidazole): active both in vivo and in vitro | radiosensitizing activity (in words) (hypoxic tumor cells; as worded, listed as metronidazole): effective in vivo | serious side effects when administered orally (mice; mouse, in vivo, po): peripheral neuropathy and convulsions in mice | central nervous system (CNS) toxicity (humans; in vivo): limiting factor for their use in humans

CN(C)CCC(=O)c1ccc([N+](=O)[O-])cc1.Cl [NDPP, p-nitro-3-dimethylamino propiophenone HCl]
radiosensitizing activity (in words) (hypoxic tumor cells): appeared promising in vitro
